In ChEMBL document CHEMBL5674860, “Optimized Dual-Glo Assay to identify co-culture-induced drug vulnerabilities in 3D CRC models” (2024):
Where “and” joins values, the source holds several entries; their conditions need not be identical. Identical values can stand only once.

What was measured:
Type in all cases: functional, Homo sapiens
Parameters in all cases: dose or concentration left out as unconfirmed
Colon cancer organoid [1] = assay: Optimized Dual-Glo assay to identify co-culture induced drug vulnerabilities using donated chemical probes and chemogenomics kinase set in O20 CRC organoid and F20 CAF mono and co-culture. […] Cell viability is reported both mono and co-culture models.
Colon cancer organoid [2] = assay: Optimized Dual-Glo assay to identify co-culture induced drug vulnerabilities using donated chemical probes and chemogenomics kinase set in O06 CRC organoid and F06 CAF mono and co-culture. […] Cell viability is reported both mono and co-culture models.
Colon cancer organoid [3] = assay: Optimized Dual-Glo assay to identify co-culture induced drug vulnerabilities using donated chemical probes and chemogenomics kinase set in O14 CRC organoid and F14 CAF mono and co-culture. […] Cell viability is reported both mono and co-culture models.
[4] = Culture type Co-Culture, Transduced with Lucferase2-P2A-EGFP lentivirus
[5] = Culture type Co-Culture, Transduced with Renilla-dsRed lentivirus
[6] = Culture type Mono-Culture, Transduced with Lucferase2-P2A-EGFP lentivirus
[7] = Culture type Mono-Culture, Transduced with Renilla-dsRed lentivirus

## O=c1nc(-c2ccccn2)sc2ccccc12 [BTZO-1]
Colon cancer organoid [1]; [4]
  Cell Viability: 113.092%
Colon cancer organoid [1]; [5]
  Cell Viability: 104.485%
Colon cancer organoid [1]; [6]
  Cell Viability: 93.617%
Colon cancer organoid [1]; [7]
  Cell Viability: 87.2617%
Colon cancer organoid [2]; [4]
  Cell Viability: 150.72%
Colon cancer organoid [2]; [5]
  Cell Viability: 152.299%
Colon cancer organoid [2]; [6]
  Cell Viability: 108.701%
Colon cancer organoid [2]; [7]
  Cell Viability: 93.9423%
Colon cancer organoid [3]; [4]
  Cell Viability: 72.8422%
Colon cancer organoid [3]; [5]
  Cell Viability: 97.4125%
Colon cancer organoid [3]; [6]
  Cell Viability: 100.899%
Colon cancer organoid [3]; [7]
  Cell Viability: 88.8475%

## Cl.O=C([C@@H](Cc1cccc(C(F)(F)F)c1)NS(=O)(=O)c1cc(F)c2c(c1)CCNC2)N1CCCC1
Colon cancer organoid [1]; [4]
  Cell Viability: 152.168%
Colon cancer organoid [1]; [5]
  Cell Viability: 150.248%
Colon cancer organoid [1]; [6]
  Cell Viability: 145.099%
Colon cancer organoid [1]; [7]
  Cell Viability: 80.4285%
Colon cancer organoid [2]; [4]
  Cell Viability: 84.043%
Colon cancer organoid [2]; [5]
  Cell Viability: 115.078%
Colon cancer organoid [2]; [6]
  Cell Viability: 78.4722%
Colon cancer organoid [2]; [7]
  Cell Viability: 93.27%
Colon cancer organoid [3]; [4]
  Cell Viability: 99.1964%
Colon cancer organoid [3]; [5]
  Cell Viability: 106.618%
Colon cancer organoid [3]; [6]
  Cell Viability: 90.5758%
Colon cancer organoid [3]; [7]
  Cell Viability: 109.686%

## CCOc1cn(-c2ccc(F)cc2C)nc1C(=O)Nc1ccc(Oc2ccnc3cc(OC)c(OC)cc23)c(F)c1
Colon cancer organoid [1]; [4]
  Cell Viability: 230.831% and 191.214%
Colon cancer organoid [1]; [5]
  Cell Viability: 78.4446% and 96.4847%
Colon cancer organoid [1]; [6]
  Cell Viability: 106.501% and 84.8653%
Colon cancer organoid [1]; [7]
  Cell Viability: 96.6073% and 93.6855%
Colon cancer organoid [2]; [4]
  Cell Viability: 87.51% and 89.4828%
Colon cancer organoid [2]; [5]
  Cell Viability: 84.5689% and 64.7371%
Colon cancer organoid [2]; [6]
  Cell Viability: 86.2071% and 96.2779%
Colon cancer organoid [2]; [7]
  Cell Viability: 101.871% and 88.7626%
Colon cancer organoid [3]; [4]
  Cell Viability: 102.771% and 90.3388%
Colon cancer organoid [3]; [5]
  Cell Viability: 85.9243% and 77.553%
Colon cancer organoid [3]; [6]
  Cell Viability: 131.662% and 123.945%
Colon cancer organoid [3]; [7]
  Cell Viability: 95.388% and 87.085%

## COc1cc2ncn(-c3cc(OCc4ccccc4C(F)(F)F)c(C(N)=O)s3)c2cc1OC [GW843682X]
Colon cancer organoid [1]; [4]
  Cell Viability: 89.2195%
Colon cancer organoid [1]; [5]
  Cell Viability: 152.214%
Colon cancer organoid [1]; [6]
  Cell Viability: 57.1216%
Colon cancer organoid [1]; [7]
  Cell Viability: 108.759%
Colon cancer organoid [2]; [4]
  Cell Viability: 4.781%
Colon cancer organoid [2]; [5]
  Cell Viability: 182.458%
Colon cancer organoid [2]; [6]
  Cell Viability: 3.81%
Colon cancer organoid [2]; [7]
  Cell Viability: 121.646%
Colon cancer organoid [3]; [4]
  Cell Viability: 8.715%
Colon cancer organoid [3]; [5]
  Cell Viability: 209.484%
Colon cancer organoid [3]; [6]
  Cell Viability: 23.2418%
Colon cancer organoid [3]; [7]
  Cell Viability: 105.344%

## CN1C(=O)c2sccc2N(C)c2nc(Nc3ccc(S(N)(=O)=O)cc3)ncc21
Colon cancer organoid [1]; [4]
  Cell Viability: 36.1991%
Colon cancer organoid [1]; [5]
  Cell Viability: 84.1947%
Colon cancer organoid [1]; [6]
  Cell Viability: 15.0082%
Colon cancer organoid [1]; [7]
  Cell Viability: 80.0783%
Colon cancer organoid [2]; [4]
  Cell Viability: 23.972%
Colon cancer organoid [2]; [5]
  Cell Viability: 57.2364%
Colon cancer organoid [2]; [6]
  Cell Viability: 18.6697%
Colon cancer organoid [2]; [7]
  Cell Viability: 40.4928%
Colon cancer organoid [3]; [4]
  Cell Viability: 32.5942%
Colon cancer organoid [3]; [5]
  Cell Viability: 86.9407%
Colon cancer organoid [3]; [6]
  Cell Viability: 37.7546%
Colon cancer organoid [3]; [7]
  Cell Viability: 55.4366%

## C=CC(=O)Nc1ccc2[nH]c(=O)n(C3CCN(Cc4ccc(-c5nc6cc[nH]c(=O)c6cc5-c5ccccc5)cc4)CC3)c2c1 [Borussertib]
Colon cancer organoid [1]; [4]
  Cell Viability: 47.4641%
Colon cancer organoid [1]; [5]
  Cell Viability: 149.193%
Colon cancer organoid [1]; [6]
  Cell Viability: 22.6881%
Colon cancer organoid [1]; [7]
  Cell Viability: 97.2977%
Colon cancer organoid [2]; [4]
  Cell Viability: 51.8578%
Colon cancer organoid [2]; [5]
  Cell Viability: 132.383%
Colon cancer organoid [2]; [6]
  Cell Viability: 55.1299%
Colon cancer organoid [2]; [7]
  Cell Viability: 71.4174%
Colon cancer organoid [3]; [4]
  Cell Viability: 51.6115%
Colon cancer organoid [3]; [5]
  Cell Viability: 159.043%
Colon cancer organoid [3]; [6]
  Cell Viability: 54.7811%
Colon cancer organoid [3]; [7]
  Cell Viability: 69.4418%

## Cc1nnc2c3ccccc3c(N[C@@H](C)[C@H](c3ccccc3)N(C)C)nn12
Colon cancer organoid [1]; [4]
  Cell Viability: 82.0862%
Colon cancer organoid [1]; [5]
  Cell Viability: 127.368%
Colon cancer organoid [1]; [6]
  Cell Viability: 95.9209%
Colon cancer organoid [1]; [7]
  Cell Viability: 100.184%
Colon cancer organoid [2]; [4]
  Cell Viability: 95.7989%
Colon cancer organoid [2]; [5]
  Cell Viability: 115.114%
Colon cancer organoid [2]; [6]
  Cell Viability: 100.296%
Colon cancer organoid [2]; [7]
  Cell Viability: 129.772%
Colon cancer organoid [3]; [4]
  Cell Viability: 89.8317%
Colon cancer organoid [3]; [5]
  Cell Viability: 122.44%
Colon cancer organoid [3]; [6]
  Cell Viability: 117.177%
Colon cancer organoid [3]; [7]
  Cell Viability: 107.176%

## CC1=C(C)C(=O)C(C(C)(C)CC(=O)N(CCCCSC[C@H]2O[C@@H](n3cnc4c(N)ncnc43)[C@@H]3OC(C)(C)O[C@@H]32)Cc2cccc(-c3ccc(Cl)cc3)c2)=C(C)C1=O
Colon cancer organoid [1]; [4]
  Cell Viability: 97.2624%
Colon cancer organoid [1]; [5]
  Cell Viability: 117.278%
Colon cancer organoid [1]; [6]
  Cell Viability: 134.873%
Colon cancer organoid [1]; [7]
  Cell Viability: 88.9157%
Colon cancer organoid [2]; [4]
  Cell Viability: 82.0361%
Colon cancer organoid [2]; [5]
  Cell Viability: 129.013%
Colon cancer organoid [2]; [6]
  Cell Viability: 89.6281%
Colon cancer organoid [2]; [7]
  Cell Viability: 110.922%
Colon cancer organoid [3]; [4]
  Cell Viability: 111.496%
Colon cancer organoid [3]; [5]
  Cell Viability: 127.734%
Colon cancer organoid [3]; [6]
  Cell Viability: 88.6013%
Colon cancer organoid [3]; [7]
  Cell Viability: 108.216%

## CCOc1ccc(S(=O)(=O)Nc2ccc(Cl)cc2C#Cc2cnc(C(=O)[O-])cc2OC)c2ncccc12.[K+]
Colon cancer organoid [1]; [4]
  Cell Viability: 109.87%
Colon cancer organoid [1]; [5]
  Cell Viability: 117.362%
Colon cancer organoid [1]; [6]
  Cell Viability: 101.299%
Colon cancer organoid [1]; [7]
  Cell Viability: 92.0089%
Colon cancer organoid [2]; [4]
  Cell Viability: 117.764%
Colon cancer organoid [2]; [5]
  Cell Viability: 113.31%
Colon cancer organoid [2]; [6]
  Cell Viability: 103.254%
Colon cancer organoid [2]; [7]
  Cell Viability: 83.0425%
Colon cancer organoid [3]; [4]
  Cell Viability: 128.517%
Colon cancer organoid [3]; [5]
  Cell Viability: 94.7736%
Colon cancer organoid [3]; [6]
  Cell Viability: 96.9622%
Colon cancer organoid [3]; [7]
  Cell Viability: 95.2003%
